Data published in patent publication US8029774B2, “Wound healing polymeric networks” (University of Pittsburgh, priority 2005, dated 2011).

Key:
human dermal fibroblasts = experiment: Cell motility, in vitro wound healing assay; conditions: for movement of fibroblasts: in vitro wound healing assay, compared to no gel
[1] = system: human keratinocytes (HaCaT cells); experiment: Cell motility, in vitro wound healing assay; conditions: compared to no gel

Structure (SMILES)	movement of fibroblasts (human dermal fibroblasts)	movement of keratinocytes [1]	other results
O=[N+]([O-])[O-].[Ag+] [silver nitrate]			dead cells (human fibroblasts; human fibroblasts, 3 μg/ml of silver nitrate in medium, or polymer cured with 3 μg/ml silver): 10%
[Ag] [silver]			impact on cell migration or proliferation (human dermal fibroblasts; silver per se): no adverse impact; concentrations of silver preferred for cell proliferation (human fibroblasts): lower than 15 μg/ml; fibroblasts proliferation (human fibroblasts): greatly inhibited
OC[C@H]1O[C@@H](O[C@H]2[C@H](O)[C@@H](O)C(O)O[C@@H]2CO)[C@H](O)[C@@H](O)[C@H]1O (some centres unmarked) [lactose]	limited cell movement	limited cell movement	
COC(=O)C(CCCCN=C=O)N=C=O (centres unmarked) [LDI, Lysine diisocyanate methyl ester]	limited cell movement	limited cell movement	
